PubChem BioAssay AID248 (DTP/NCI, 2004)
Values joined by “and” are separate entries in the source; they are usually repeats but may differ in a detail not shown here. Equal values may be shown once. Toxic doses and inconclusive results are not listed. Cut-off read from the data, not from the text of the source: active = T/C of 150% or more; inactive = T/C below 125%.

System: L1210 leukemia ip in BDF1 mice, survival T/C
Assay: NCI In Vivo Anticancer Drug Screen. Data for tumor model L1210 Leukemia (intraperitoneal) in B6D2F1 (BDF1) mice
Conditions: endpoint: mean survival time, higher = longer survival
Outline: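 In this screen, tumor-bearing mice given compound are compared to those given vehicle, and their survival values are reported as a treated-to-control quotient.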

[1] = dose: 100.0 mg/kg/injection, schedule: Q04DX003 (ip), vehicle: Klucel (hydroxypropylcellulose) (HPC)
[2] = dose: 200.0 mg/kg/injection, schedule: Q04DX003 (ip), vehicle: Klucel (hydroxypropylcellulose) (HPC)
[3] = dose: 100.0 mg/kg/injection, schedule: Q04DX003 (ip), vehicle: saline with Tween-80
[4] = dose: 200.0 mg/kg/injection, schedule: Q04DX003 (ip), vehicle: saline with Tween-80
[5] = dose: 400.0 mg/kg/injection, schedule: Q04DX003 (ip), vehicle: saline with Tween-80
[6] = dose: 50.0 mg/kg/injection, schedule: Q04DX003 (ip), vehicle: saline with Tween-80
[7] = dose: 50.0 mg/kg/injection, schedule: Q01DX009 (ip), vehicle: saline with Tween-80
[8] = dose: 100.0 mg/kg/injection, schedule: Q01DX009 (ip), vehicle: saline with Tween-80
[9] = dose: 200.0 mg/kg/injection, schedule: Q01DX009 (ip), vehicle: saline with Tween-80
[10] = dose: 400.0 mg/kg/injection, schedule: Q01DX009 (ip), vehicle: saline with Tween-80
[11] = dose: 100.0 mg/kg/injection, schedule: Q01DX001 (ip), vehicle: saline
[12] = dose: 200.0 mg/kg/injection, schedule: Q01DX001 (ip), vehicle: saline
[13] = dose: 400.0 mg/kg/injection, schedule: Q01DX001 (ip), vehicle: saline

Measured: T/C

CN(C)C=Nc1ccc(Cl)c2ccccc12
inactive: dose: 100.0 mg/kg/injection, schedule: Q01DX001 (ip), vehicle: Klucel (hydroxypropylcellulose) (HPC) 99 % of control | [1] 98 % of control | dose: 200.0 mg/kg/injection, schedule: Q01DX001 (ip), vehicle: Klucel (hydroxypropylcellulose) (HPC) 96 % of control | [2] 101 % of control | dose: 400.0 mg/kg/injection, schedule: Q01DX001 (ip), vehicle: Klucel (hydroxypropylcellulose) (HPC) 97 % of control

CCCCCOC(=O)CN(CC(=O)OCCCCC)c1ccccc1
inactive: dose: 100.0 mg/kg/injection, schedule: Q01DX009 (ip), vehicle: Klucel (hydroxypropylcellulose) (HPC) 88 % of control | [3] 101 % of control | dose: 200.0 mg/kg/injection, schedule: Q01DX009 (ip), vehicle: Klucel (hydroxypropylcellulose) (HPC) 99 % of control | [4] 98 % of control | dose: 400.0 mg/kg/injection, schedule: Q01DX009 (ip), vehicle: Klucel (hydroxypropylcellulose) (HPC) 91 % of control | [5] 95 % of control

CC(C)[PH+]1c2ccccc2-c2ccccc21.CC(C)[PH+]1c2ccccc2-c2ccccc21.[Cl][Pt][Cl]
inactive: dose: 12.5 mg/kg/injection, schedule: Q04DX003 (ip), vehicle: saline with Tween-80 98 % of control | dose: 25.0 mg/kg/injection, schedule: Q04DX003 (ip), vehicle: saline with Tween-80 98 % of control | [6] 98 % of control

ClC(Cl)[P+](N1CCCCC1)(N1CCCCC1)N1CCCCC1
inactive: dose: 0.75 mg/kg/injection, schedule: Q04DX003 (ip), vehicle: Klucel (hydroxypropylcellulose) (HPC) 115 % of control | dose: 1.5 mg/kg/injection, schedule: Q04DX003 (ip), vehicle: Klucel (hydroxypropylcellulose) (HPC) 118 % of control | dose: 3.0 mg/kg/injection, schedule: Q04DX003 (ip), vehicle: Klucel (hydroxypropylcellulose) (HPC) 93 % of control and 118 % of control

O=C(Nc1ccc(CC2=NCCN2)cc1)c1ccc(C(=O)Nc2ccc(CC3=NCCN3)cc2)cc1
inactive: dose: 0.5 mg/kg/injection, schedule: Q01DX Z (ip), vehicle: saline 102 % of control | dose: 1.0 mg/kg/injection, schedule: Q01DX Z (ip), vehicle: saline 104 % of control | dose: 2.0 mg/kg/injection, schedule: Q01DX Z (ip), vehicle: saline 91 % of control | dose: 4.0 mg/kg/injection, schedule: Q01DX Z (ip), vehicle: saline 104 % of control | dose: 8.0 mg/kg/injection, schedule: Q01DX Z (ip), vehicle: saline 104 % of control

CC(C)c1oc(=O)cc2c1[C@@H](O)[C@H]1OC(=O)[C@@]3(C)[C@@H](O)[C@H]4O[C@H]4[C@@]2(C)[C@@H]13
inactive: dose: 5.0 mg/kg/injection, schedule: Q01DX001 (ip), vehicle: steriod suspending solution 105 % of control | dose: 10.0 mg/kg/injection, schedule: Q01DX001 (ip), vehicle: steriod suspending solution 98 % of control | dose: 20.0 mg/kg/injection, schedule: Q01DX001 (ip), vehicle: steriod suspending solution 110 % of control | dose: 40.0 mg/kg/injection, schedule: Q01DX001 (ip), vehicle: steriod suspending solution 104 % of control

COc1nc(Cl)nc(Cl)n1
inactive: dose: 6.0 mg/kg/injection, schedule: Q01DX Z (ip), vehicle: methylcellulose (MC) 89 % of control

CCCN1CC(Br)C(=O)NC1=O (stereo unspecified)
inactive: dose: 100.0 mg/kg/injection, schedule: Q01DX Z (ip), vehicle: methylcellulose (MC) 90 % of control

CC(C)=CN1CCCCC1
inactive: [7] 95 % of control | [8] 101 % of control | [3] 98 % of control | [4] 96 % of control

NCCCP(c1ccccc1)c1ccccc1
inactive: dose: 75.0 mg/kg/injection, schedule: Q01DX001 (ip), vehicle: saline 105 % of control | dose: 150.0 mg/kg/injection, schedule: Q01DX001 (ip), vehicle: saline 92 % of control

CC(=O)CC(=O)Nc1ccc([N+](=O)[O-])cc1
inactive: [8] 97 % of control | dose: 100.0 mg/kg/injection, schedule: Q04DX003 (ip), vehicle: saline 96 % of control | [9] 111 % of control | dose: 200.0 mg/kg/injection, schedule: Q04DX003 (ip), vehicle: saline 96 % of control | [10] 102 % of control | dose: 400.0 mg/kg/injection, schedule: Q04DX003 (ip), vehicle: saline 92 % of control

CC(=O)Cc1cc(=O)[nH]c(=S)[nH]1
inactive: [7] 95 % of control | [8] 92 % of control | [9] 92 % of control

N#CC(C#N)=Cc1csc2ccccc12
inactive: [11] 93 % of control | [12] 102 % of control | [13] 102 % of control

CSc1ccc(NC(=O)OCC2CC3C=CC2C3)cc1 (stereo unspecified)
inactive: [8] 96 % of control and 92 % of control | dose: 100.0 mg/kg/injection, schedule: Q04DX002 (ip), vehicle: saline with Tween-80 89 % of control | [3] 95 % of control | [9] 94 % of control and 110 % of control | dose: 200.0 mg/kg/injection, schedule: Q04DX002 (ip), vehicle: saline with Tween-80 89 % of control | [4] 93 % of control | [10] 94 % of control and 100 % of control | dose: 400.0 mg/kg/injection, schedule: Q04DX002 (ip), vehicle: saline with Tween-80 111 % of control | [5] 98 % of control

COc1ccc(OC)c(NC(=O)Nc2ccc([As](=O)(O)O)cc2)c1
inactive: dose: 50.0 mg/kg/injection, schedule: Q04DX003 (ip), vehicle: Klucel (hydroxypropylcellulose) (HPC) 96 % of control | [1] 100 % of control | [2] 93 % of control and 88 % of control

O=c1ccc2c([N+](=O)[O-])cc([N+](=O)[O-])c(O)c2[nH]1
inactive: [11] 101 % of control | [12] 101 % of control

COC1=NCCCCC1
inactive: [6] 94 % of control | [3] 99 % of control | [4] 91 % of control

CC1(C)OC2C(C(=O)O)OC(n3cnc4c(N)ncnc43)C2O1 (stereo unspecified)
inactive: dose: 100.0 mg/kg/injection, schedule: Q01DX005 (ip), vehicle: saline 102 % of control | dose: 200.0 mg/kg/injection, schedule: Q01DX005 (ip), vehicle: saline 104 % of control

CC1=CC(O)CCC1 (stereo unspecified)
inactive: [3] 104 % of control | [4] 109 % of control | [5] 93 % of control

C=CC(COC(C)=O)N1CC1 (stereo unspecified)
inactive: dose: 1.0 mg/kg/injection, schedule: Q01DX Z (ip), vehicle: carboxymethylcellulose (CMC) 100 % of control | dose: 2.0 mg/kg/injection, schedule: Q01DX Z (ip), vehicle: carboxymethylcellulose (CMC) 92 % of control | dose: 4.0 mg/kg/injection, schedule: Q01DX Z (ip), vehicle: carboxymethylcellulose (CMC) 104 % of control | dose: 5.0 mg/kg/injection, schedule: Q01DX Z (oral), vehicle: saline 101 % of control | dose: 7.5 mg/kg/injection, schedule: Q01DX Z (ip), vehicle: saline 104 % of control | dose: 7.5 mg/kg/injection, schedule: Q01DX Z (oral), vehicle: saline 104 % of control | dose: 8.0 mg/kg/injection, schedule: Q01DX Z (ip), vehicle: carboxymethylcellulose (CMC) 101 % of control | dose: 10.0 mg/kg/injection, schedule: Q01DX Z (oral), vehicle: saline 104 % of control | dose: 12.0 mg/kg/injection, schedule: Q01DX Z (ip), vehicle: carboxymethylcellulose (CMC) 110 % of control | dose: 15.0 mg/kg/injection, schedule: Q01DX Z (ip), vehicle: saline 121 % of control | dose: 15.0 mg/kg/injection, schedule: Q01DX Z (oral), vehicle: saline 105 % of control | dose: 20.0 mg/kg/injection, schedule: Q01DX Z (oral), vehicle: saline 114 % of control | dose: 25.0 mg/kg/injection, schedule: Q01DX Z (ip), vehicle: carboxymethylcellulose (CMC) 96 % of control | dose: 30.0 mg/kg/injection, schedule: Q01DX Z (ip), vehicle: saline 97 % of control | dose: 40.0 mg/kg/injection, schedule: Q01DX Z (oral), vehicle: saline 116 % of control | dose: 60.0 mg/kg/injection, schedule: Q01DX Z (oral), vehicle: saline 100 % of control

COc1ccc(/C=C2/CCOC2=O)cc1
inactive: dose: 12.5 mg/kg/injection, schedule: Q04DX002 (ip), vehicle: Klucel (hydroxypropylcellulose) (HPC) 99 % of control

CCCCC(CC)COP(=S)(S)OCC(CC)CCCC.[Sn] (stereo unspecified)
inactive: [1] 100 % of control | [2] 99 % of control | dose: 400.0 mg/kg/injection, schedule: Q04DX003 (ip), vehicle: Klucel (hydroxypropylcellulose) (HPC) 96 % of control

NC1CCSCC1
inactive: [11] 104 % of control | [12] 96 % of control | [13] 96 % of control
